Reference: ChEMBL document CHEMBL1137249, “Cytostatic and antiviral 6-arylpurine ribonucleosides. Part 7: synthesis and evaluation of 6-substituted purine l-ribonucleosides” (Bioorg Med Chem Lett, 2006)
Activity calls are given as the source filed them. The calls are words filed in the database; no cut-off is given here.

Experiments:
[1] = Cytotoxicity against Huh7 cells expressing HCV con1 replicon; assay type: cell-based, Huh-7; details: human
Hepatitis C virus [2] = test: Antiviral activity against HCV con1 replicon by HCV subgenomic replicon assay; assay type: functional, organism-based, Hepacivirus hominis; details: genotype 1b con1
Hepatitis C virus [3] = test: Incorporation by HCV con1 NS5Bdelta55 RNA polymerase upto 1mM; details: Hepatitis C virus subtype 1b
[4] = Cytotoxicity against MT4 cells; assay type: cell-based; details: human
Hepatitis C virus [5] = test: Inhibition of recombinant HCV con1 NS5Bdelta21 RNA polymerase; set-up: species or system Hepatitis C virus subtype 1b

OC[C@@H]1O[C@H](n2cnc3c(-c4ccco4)ncnc32)[C@@H](O)[C@H]1O
CC50 [1]: > 100 µM
EC50 (Hepatitis C virus [2]): > 100 µM

O=P(O)(O)OC[C@@H]1O[C@H](n2cnc3c(Cc4ccccc4)ncnc32)[C@@H](OP(=O)(O)O)[C@H]1OP(=O)(O)O
Activity (Hepatitis C virus [3]): inactive

OC[C@H]1O[C@H](n2cnc3c(-c4cccs4)ncnc32)[C@@H](O)[C@H]1O
CC50 [1]: > 100 µM
CC50 [4]: > 100 µM
EC50 (Hepatitis C virus [2]): 56 µM

Nc1ncnc2c1ncn2[C@H]1O[C@@H](COP(=O)(O)O)[C@H](OP(=O)(O)O)[C@@H]1OP(=O)(O)O
Activity (Hepatitis C virus [3]): inactive

OC[C@@H]1O[C@H](n2cnc3c(-c4ccccc4)ncnc32)[C@@H](O)[C@H]1O
CC50 [1]: > 50 µM
EC50 (Hepatitis C virus [2]): > 100 µM

COc1ccc(-c2ncnc3c2ncn3[C@H]2OC(CO)[C@H](O)[C@@H]2O)cc1 (single isomer, unassigned)
CC50 [1]: > 100 µM
EC50 (Hepatitis C virus [2]): > 50 µM

OC[C@@H]1O[C@H](n2cnc3c(Cc4ccccc4)ncnc32)[C@@H](O)[C@H]1O
Activity (Hepatitis C virus [3]): inactive
CC50 [1]: > 500 µM
CC50 [4]: > 500 µM
IC50 (Hepatitis C virus [5]): > 100 µM
EC50 (Hepatitis C virus [2]): 41 µM

Cc1ncnc2c1ncn2[C@H]1O[C@@H](CO)[C@H](O)[C@@H]1O
CC50 [1]: > 500 µM
EC50 (Hepatitis C virus [2]): > 500 µM

OCc1ncnc2c1ncn2[C@H]1O[C@@H](CO)[C@H](O)[C@@H]1O
CC50 [1]: > 500 µM
EC50 (Hepatitis C virus [2]): > 500 µM

OC[C@@H]1O[C@H](n2cnc3c(-c4ccsc4)ncnc32)[C@@H](O)[C@H]1O
CC50 [1]: > 50 µM
EC50 (Hepatitis C virus [2]): > 50 µM

CCc1ncnc2c1ncn2[C@H]1O[C@@H](CO)[C@H](O)[C@@H]1O
CC50 [1]: > 500 µM
EC50 (Hepatitis C virus [2]): > 500 µM
